The values below come from PubChem BioAssay AID721 (PCMD, 2007).

Activity calls are given as the source filed them. How the calls were made is not given here.

The target of the experiment is Coagulation factor XI (Homo sapiens) (UniProt P03951). The experiment in a line: FXIa inhibitor IC50 values, dose response, biochemical, hits from single-well screen (AID 721). The note with it: purified factor XIa enzymatic assay, fluorescence.
Sequence of Coagulation factor XI (Homo sapiens) (P03951 19-387 limits assumed): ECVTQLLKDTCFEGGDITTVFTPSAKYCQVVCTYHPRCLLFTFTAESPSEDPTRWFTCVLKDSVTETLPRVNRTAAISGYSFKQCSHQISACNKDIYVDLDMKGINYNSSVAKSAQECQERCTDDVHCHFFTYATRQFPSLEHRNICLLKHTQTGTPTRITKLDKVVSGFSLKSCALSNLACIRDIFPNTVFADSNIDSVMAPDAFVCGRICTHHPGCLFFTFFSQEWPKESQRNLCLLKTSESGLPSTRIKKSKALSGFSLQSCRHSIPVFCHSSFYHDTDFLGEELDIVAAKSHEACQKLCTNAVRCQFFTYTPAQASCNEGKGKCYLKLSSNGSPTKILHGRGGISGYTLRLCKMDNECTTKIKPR
Sequence of Coagulation factor XI (Homo sapiens) (P03951 388-625 limits assumed): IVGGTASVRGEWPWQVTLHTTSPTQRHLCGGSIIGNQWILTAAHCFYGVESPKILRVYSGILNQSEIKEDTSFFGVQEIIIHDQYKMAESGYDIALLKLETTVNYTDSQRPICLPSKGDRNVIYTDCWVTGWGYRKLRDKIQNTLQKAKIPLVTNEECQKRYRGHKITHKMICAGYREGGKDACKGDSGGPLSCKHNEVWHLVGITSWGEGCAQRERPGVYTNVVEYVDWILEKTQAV
What is called IC50 is the concentration that inhibits the measured activity by half. Regarding `CCOC(=O)N=S(=O)(Oc1ccc([N+](=O)[O-])cc1)c1ccccc1` (stereo not given), the IC50 was > 50 µM (inactive).

For `COc1cc(OC)c2c(N)c(C#N)c(C(F)(F)C(F)(F)F)nc2c1`, the IC50 is > 50 µM (inactive).

Consider `CCOC(=O)c1cc2c(ccn2C)n1CC(=O)N1CCC(C)CC1`, for which the 50% inhibitory concentration (IC50) was 0.744 µM.

With `COC(=O)c1sc(NC(=O)CC(C)C)c(C(=O)OC)c1C`, the IC50 is > 50 µM (inactive).

On to `CCCN(CCC)C(C(=O)Nc1cccc(OC)c1)c1ccccc1` (stereo not given), for which the IC50 was > 50 µM (inactive).

With `O=c1nc(-c2ccccc2)c2cc(Cl)ccc2[nH]1`, the IC50 is > 50 µM (inactive).

Consider `Cc1cc(NC(=O)COC(=O)c2c(C)nn(Cc3ccccc3)c2C)no1`, for which the IC50 was > 50 µM (inactive).

In the case of `O=C(NC(C(=O)c1ccccc1)n1c(=O)cc[nH]c1=S)c1ccccc1` (stereo not given), the IC50 is > 50 µM (inactive).

With `COc1cc(OC)cc(-c2nnc(SCc3cccc(C(=O)O)c3)o2)c1`, the IC50 was > 50 µM (inactive).

As to `O=C(c1ccc(F)cc1)N1CCN(C(=O)c2cccnc2)CC1`, the IC50 was > 50 µM (inactive).

Turning to `Cn1nnnc1SCC(=O)N(C1CCCCC1)C1CCCCC1`, the IC50 was > 50 µM (inactive).

Take `CCn1c(SCC(=O)c2[nH]c(C)c(C(C)=O)c2C)nnc1-c1ccccc1`: the IC50 was 7.44 µM.

With `CCOc1ccc(S(=O)(=O)NCc2ccc(OC)cc2)c2cccnc12`, the IC50 was > 50 µM (inactive).

Turning to `COC(=O)c1[nH]c2ccc(Br)cc2c1NC(=O)CN1CCCc2ccccc21`, the IC50 was > 50 µM (inactive).

In the case of `Cc1cc(C)n2nc(C(=O)Nc3ccc4c(c3)OCO4)cc2n1`, the IC50 was > 50 µM (inactive).

Turning to `Cc1ccc(C(=O)n2nc(-c3cccnc3)nc2N)cc1`, the IC50 is > 50 µM (inactive).

`O=C(c1cn(-c2ccccc2)nc1-c1ccncc1)n1nnc2ccccc21`: the IC50 is 0.707 µM.

With `CCOC(=O)c1c(C)nc2c(c1C)c(=O)oc1ccccc12`, the IC50 is > 50 µM (inactive).

Consider `CCCC(=O)n1nc(-c2ccccc2)nc1SC`, for which the IC50 is > 50 µM (inactive).

Consider `COC(=O)C(Cc1c[nH]c2ccccc12)NC(C)=O` (stereo not given), for which the half-maximal inhibitory concentration (IC50) is 6.69 µM.

On to `Cn1c(SCC(=O)NC2CCCCC2)nnc1-c1cccc(N)c1`, for which the IC50 is > 50 µM (inactive).

In the case of `CCc1ccc(NC(=O)Cn2nc(C(F)(F)F)c3c2CCC3)cc1`, the IC50 was > 50 µM (inactive).

Consider `Cc1ccccc1C(=O)N=c1sccn1C`, for which the IC50 was > 50 µM (inactive).

Regarding `COC(=O)CSc1nnc(C)n1-c1cccc(OC)c1`, the IC50 is 2.36 µM.

Take `COc1ccc(Cn2nnnc2C(c2ccccc2Cl)N2CCC(C(N)=O)CC2)cc1` (stereo not given): the IC50 was > 50 µM (inactive).

With `COc1ccc(OCCSc2ncn[nH]2)cc1`, the IC50 is > 50 µM (inactive).

As for `O=C(Nc1ccccc1C(=O)N1CCOCC1)c1ccc(F)cc1`, the IC50 is 21.4 µM.

With `C=CCn1c(=O)c2c(nc(Br)n2Cc2ccccc2Cl)n(C)c1=O`, the IC50 was 0.638 µM.

`CN(CCOc1ccccc1)c1ccc(S(=O)(=O)N2CCCCC2)cn1`: the IC50 is > 50 µM (inactive).

Turning to `CNC(=O)COC(=O)c1[nH]c(C)c(C(C)=O)c1C`, the IC50 is > 50 µM (inactive).

Consider `COc1ccc2c(=O)cc(-c3ccccc3)n(C)c2c1`, for which the IC50 was > 50 µM (inactive).

With `COc1ccc(OCC(=O)Nc2cc(-c3nn(C)c(=O)c4ccccc34)ccc2OC)cc1`, the IC50 is > 50 µM (inactive).

Consider `CCC1(c2ccccc2)C(=O)N(C)C(=O)N(C)C1=O`, for which the IC50 is > 50 µM (inactive).

In the case of `Cc1ccc(C(=O)n2nnc3ccccc32)cc1`, the half-inhibitory concentration (IC50) is 2.39 µM.

Turning to `COCCN=C1Sc2nc3c(C)cccc3cc2CN1Cc1ccco1`, the IC50 is 0.745 µM.

As for `CCCc1nc2ccccc2c(=O)n1-c1ccc(OC)cc1`, the IC50 is > 50 µM (inactive).

Regarding `Cc1cccc(NC(=O)c2snc3c(=O)[nH]cnc23)c1`, the IC50 was > 50 µM (inactive).

On to `COc1ccc(CC(=O)NCc2ccc3c(c2)OCO3)cc1`, for which the IC50 was > 50 µM (inactive).

As to `CCCC1CCc2c(sc(N)c2C(N)=O)C1` (stereo not given), the IC50 was > 50 µM (inactive).

On to `Cc1c(O)ccc(C(=O)CN2C(=O)c3ccccc3C2=O)c1O`, for which the IC50 was > 50 µM (inactive).

`Cc1cnc(C(=O)OCC(=O)NCc2ccccc2)cn1`: the IC50 is > 50 µM (inactive).

For the compound `O=C(CCCN1C(=O)c2ccccc2C1=O)NCC1CCCO1` (stereo not given), the IC50 was 14.6 µM.

As to `COc1ccc(S(=O)(=O)N2CCC(C(=O)N3CCc4ccccc4C3)CC2)cc1Cl`, the IC50 was 6.26 µM.

For the compound `O=C(CCSc1nnc2ccc3ccccc3n12)Nc1ccc(F)cc1`, the IC50 was > 50 µM (inactive).

Take `O=c1cccc2n1CC1CC2CN(S(=O)(=O)c2ccccc2)C1` (stereo not given): the IC50 was > 50 µM (inactive).

For the compound `Cc1cc(=O)[nH]c(-n2[nH]c(C)cc2=O)n1`, the IC50 is > 50 µM (inactive).

Take `Cc1ccc(-c2csc(N3CCC(NS(=O)(=O)c4ccc5c(c4)OCCO5)CC3)n2)cc1`: the IC50 is > 50 µM (inactive).

Take `CCC(CO)NCc1ccc(OC2CCCC2)cc1` (stereo not given): the IC50 is > 50 µM (inactive).

As for `O=c1c(-c2cc3ccccc3o2)[n+]([O-])c2ccccc2n1OCc1ccccn1`, the IC50 is > 50 µM (inactive).

Regarding `CC(C)c1nc2ccc(NC(=O)C3CCCCC3)cc2[nH]1`, the IC50 was > 50 µM (inactive).

Regarding `COc1ccccc1-n1cnnc1SCC(=O)Nc1nc(C)c(Cl)cc1Cl`, the IC50 is 10.2 µM.

Consider `O=C(c1cccc2ccccc12)n1nnc2ccccc21`, for which the IC50 was > 50 µM (inactive).

Consider `Cc1ccc(NS(=O)(=O)c2ccc(OCC(=O)N3CCOCC3)cc2)cc1`, for which the IC50 is > 50 µM (inactive).

With `O=C(NCc1ccccc1)C1CCCN(S(=O)(=O)c2cccc3nonc23)C1` (stereo not given), the IC50 is > 50 µM (inactive).

In the case of `O=S(=O)(Nc1cccc2nsnc12)c1ccccc1`, the half-inhibitory concentration (IC50) was 9.3 µM.

Regarding `CCOC(=O)c1c(C)n(Cc2ccccc2)c2ccc(OCC(O)Cn3nc(C)cc3C)cc12` (stereo not given), the IC50 is > 50 µM (inactive).

In the case of `O=C(Oc1ccc2c(=O)c(Cl)coc2c1)c1cccnc1`, the IC50 is > 50 µM (inactive).

Regarding `CCOc1cccc2cc(C(N)=O)c(=NCc3ccccc3)oc12`, the IC50 is > 50 µM (inactive).

As to `CCN(CC)CCNC(=O)C(C)c1nn(C)c(=O)c2ccccc12` (stereo not given), the IC50 was > 50 µM (inactive).

For `OCCCn1c(-c2ccccc2)nc(=S)c2c1CCCC2`, the IC50 is > 50 µM (inactive).

With `COc1cccc(C(=O)N(Cc2ccccc2)Cc2cc3cc4c(cc3[nH]c2=O)OCCO4)c1`, the 50% inhibitory concentration (IC50) was 10.4 µM.

For the compound `Cc1c(NC(=O)c2cc3ccccc3o2)c(=O)n(-c2ccccc2)n1C`, the IC50 is > 50 µM (inactive).

As for `COc1cc(/C=c2\sc3n(c2=O)CCCN=3)ccc1O`, the IC50 is > 50 µM (inactive).

Turning to `Cc1ccc(NC(=O)CCn2cccc2)cc1`, the IC50 was > 50 µM (inactive).

For `O=S(=O)(Cc1ccccc1)N1CCC(c2nc(-c3cccs3)no2)CC1`, the IC50 is > 50 µM (inactive).

Consider `CCOc1cc(S(=O)(=O)N(Cc2ccccc2)Cc2ccccc2)c(OCC)cc1-n1cnnn1`, for which the IC50 was > 50 µM (inactive).

Turning to `CCc1c(O)nc(SCC(=O)NC(C)(C)C)n(-c2ccccc2)c1=O`, the IC50 was > 50 µM (inactive).

For the compound `Cc1ccc(N(C(=O)c2ccccn2)C2(C(=O)NC3CCCC3)CCCCC2)cc1`, the IC50 is > 50 µM (inactive).

Consider `O=C(Oc1cccc(-n2cnnn2)c1)c1ccco1`, for which the IC50 was 4.06 µM.

Turning to `CCc1ccc(CC2S/C(=C(\C#N)C(C)=O)NC2=O)cc1` (stereo not given), the IC50 was > 50 µM (inactive).

Consider `CCn1nc(CC(=O)Nc2nnc(CC(=O)N3CCCC3)s2)c2ccccc2c1=O`, for which the IC50 was > 50 µM (inactive).

`CCC1CC2CC(NC(C)=O)C1C2` (stereo not given): the IC50 was 0.588 µM.

For the compound `N#Cc1cc2c(nc1SCC(=O)Nc1sc3c(c1C#N)CCC3)CCC2`, the IC50 was > 50 µM (inactive).

Consider `N#Cc1ccc(NC(=O)COC(=O)CNC(=O)C2CCCCC2)cc1`, for which the IC50 is > 50 µM (inactive).

With `CNCCCc1ccccc1`, the IC50 is > 50 µM (inactive).
